Where “and” joins values, the source holds several entries; their conditions need not be identical. Equal entries are not always repeated. Where two headings read alike, the source gives them in different places. Each block holds one compound with its values, some of them ahead of it.
Assays:
[1] = rabbit, in vivo
Procedure: Analysis of samples was conducted using a SCIEX API 5000 mass spectrometer (Applied Biosystems/MDS Sciex), Shimadzu LC-20ADXR HPLC pumps, Shimadzu SCL-10A controller, and HTS-PAL autoinjector (CTC Analytics). Chromatography was performed using a Waters X-Bridge C-18 (3.5 µm; 100 × 2.1 mm) column equipped with a Phenomenex KrudKatcher ULTRA HPLC In-Line Filter (Part AF0-8497). The column was held at a temperature of 40 °C, while the autosampler compartment was maintained at 4 °C. Mobile phases consisted of: (A) 95:5 H2O:MeOH with 2 mM Ammonium Acetate (NH4OAc) and (B) 85:10:5 MeOH:H2O:MeCN with 2 mM NH4OAc. A gradient elution profile was employed, following the trend of: (0 min 30% B), (0.50 min 30% B), (2.50 min 65% B), (2.51 min 100% B), (4.50 min 100% B), (4.51 min 30% B), (6.50 min 30% B). Flow was constant at 0.6 mL min^-1 with an injection volume of 10 µL. For MS parameters, the system was operated in positive ion mode with a TurboIonSpray probe monitoring transitions (±0.2 AMU) of m/z 393.2 → 373.2 for Dex and 397.3 → 377.2 for the Dex-d4 deuterated internal standard. Analyst Version 1.4.2 (Applied Biosystems-MDS Sciex) was used for instrument control, data acquisition, and peak integrations, while calculations including peak area ratios, standard curve regressions, sample concentration values, and descriptive statistics were performed with the assistance of the ALIS2004 validated LIMS.
Dex and internal standard (Dex-d4) were extracted from vitreous humor on ice using protein precipitation. Samples were initially centrifuged at approximately 1500 rcf for 5 min to remove any interfering particulates. Stepwise, the protocol for extraction from vitreous humor was to (1) pipette 50 µL of vitreous humor into an extraction tube; (2) add 13 µL H2O and vortex to mix; (3) add 25 µL internal standard spiking solution (100 ng/mL Dex-d4 in a 1:1 solvent of MeOH:H2O); (4) add 25 µL of make-up reagent (1:1 mixture of MeOH:H2O); (5) vortex mix for 5-10 s at a speed setting of 4 or 5; (6) centrifuge at ~60 rcf for 2 min; (7) add 300 µL of 9:1 MeOH:5 mM NH4OAc at pH 7 to precipitate proteins; (8) cap and vortex mix at full speed for 2 min; (9) Centrifuge at approximately 2700 rcf for 5 min; (10) transfer 300 µL of supernatant to a separate tube; (11) vortex the collected supernatant for 30 s at a low to moderate speed; (12) centrifuge at ~1500 rcf for 5 min; (13) store prepared extract at 4 °C until analysis by LC-MS/MS.
Pharmacokinetics. […] Animals were anesthetized with ketamine (up to ~50 mg/kg) and xylazine (up to ~10 mg/kg). Eyes were surgically prepared before intravitreal procedures with 5% betadine and topical anesthetic eye drops (proparacaine hydrochloride, 0.5%). Prior to test article administration, pupils were dilated with topical application of one drop each of 10% phenylephrine and 1% tropicamide on each cornea.
Implants (30 G × 6 mm Dex-TEG-Dex extruded rods, Ozurdex®) were injected (30 G needle for Dex-TEG-Dex, 22 G needle for Ozurdex®) intravitreally into the eyes of New Zealand White rabbits (female, 1.5–2.5 kg) with terminal timepoints of 1 and 2 weeks and 1, 2, 3, 6, 9, 12, and 14 months. Ocular tissues and plasma were collected at each timepoint and analyzed for Dex by LC/MS/MS. Whole globe eyes were collected into centrifuge tubes and remained frozen for a minimum of 24 h before dissection and tissue collection. During dissection, vitreous humor containing any remaining test article was collected frozen into pre-weighed centrifuge tubes and stored at −80 °C until further processing.

[2] = cited from earlier work
[3] = In vitro release; assay type: physicochemical; conditions: for Cumulative Dex Release (%): Fig 5g pellet, FBS
Procedure: Pellets for release studies. Crystalline drug dimers were weighed on a stainless steel coupon. In the case of blends with a second drug, the dimer and drug were mixed at the desired mass ratio with mortar and pestle prior to weighing. Samples were transferred to a heat press (Carver Laboratory Press). A PTFE mold containing an array of 1 mm diameter holes of 1 mm depth was placed on top of the melt, and pressure was applied for 2 min. Molded pellets were cooled to room temperature and punched out of the mold, yielding a pellet of 1 mm height × 1 mm diameter.
Release studies were carried out using different media, including PBS (pH 7.4, Gibco), 100% FBS (Sigma, F1051), 1% FBS in PBS pH 7.4, and 3.6% BSA (Sigma, A7906) in PBS (pH 7.4, Gibco). […] Samples were incubated in release medium at 37 °C under constant agitation on an orbital shaker at 115 rpm (VWR). At designated timepoints, sampling was performed by complete removal of medium and replenishment with fresh buffer. Sampling timepoints included 24 h and then every 3–4 days thereafter. For PBS release conditions, samples were analyzed directly. For samples with protein (100% FBS, 1% FBS, 3.6% BSA), protein was precipitated by addition of acetonitrile. Samples were vortexed and centrifuged to separate extracted drug from precipitated protein. The supernatant was then analyzed for drug concentration by HPLC.

[4] = test system: LPS-induced stimulation of PGE2 production by primary human monocytes; experiment: LPS induced monocyte activation (PGE2 ELISA); assay type: cell-based; conditions: for % Activity: Fig 4h, PGE2 production, one line per donor; for IC50: primary human monocytes, N=3, read-out: IC50, inhibition of LPS-induced PGE2 production
Excerpt: Monocytes were isolated from whole peripheral blood donated by healthy volunteers. Protocols were approved by Health Sciences Research Ethics Board (REB) at the University of Toronto (ethics approval #22203). All experiments were repeated with three distinct donors who provided informed consent. Briefly, whole blood was layered on Histopaque-1077 (Sigma) and the mononuclear cell fraction was isolated by density centrifugation. Platelets were removed through a series of washes. Monocytes were seeded at a density of 200,000/well in a 96-well plate (Becton Dickinson). Medium was changed 2 h post-seeding to remove non-adherent cells. […] Dex derived from degraded Dex-TEG-Dex was prepared by dissolving Dex-TEG-Dex in ethanol at 10 mg/ml, adding to culture medium to achieve a concentration of 10 µg/ml, and subsequent incubation of the solution at 37 °C and 5% CO2 until the dimer had fully degraded, as confirmed by HPLC. […] Samples were incubated for 15 min at 37 °C and 5% CO2, followed by addition of a 2 µl lipopolysaccharide stock solution (LPS, Sigma) to obtain a final concentration of 50 µg/ml. Following overnight exposure to LPS, supernatant was collected and analyzed for PGE2 using a PGE2 ELISA kit according to the manufacturer’s instructions (R&D Systems).

[5] = test system: vascular endothelial growth factor (VEGF) induced blood-retinal barrier breakdown; experiment: Rabbit pharmacodynamics, VEGF-induced vascular leakage; assay type: in vivo, Dutch Belted rabbits; parameters: key to FA Scoring: 0: major vessels straight, some tortuosity of smaller vessels, no vessel dilation; 1: increased tortuosity of major vessels and/or some vessel dilation; 2: leakage between major vessels, significant vessel dilation; 3: leakage between major and minor vessels, minor vessels still visible; 4: leakage between major and minor vessels, minor vessels poorly/not visible; conditions: single eyes, Fig 9b
Procedure: Pharmacodynamics. Rabbit pharmacodynamics studies were performed at Absorption Systems California (San Diego, CA, USA). All studies were conducted in compliance with relevant ethical regulations, including the USDA Animal Welfare Act (i.e., relevant sections of Section 9, Part 1, 2, and 3 of the Code of Federal Regulations) and in compliance with Absorption Systems’ Animal Welfare Assurance filed with the National Institutes of Health. Protocols were reviewed and approved by Absorption Systems’ Institutional Animal Care and Use Committee (IACUC) prior to the initiation of procedures. Treatment of animals was in accordance with conditions specified in the Guide for Care and Use of Laboratory Animals (NRC, 2011, National Academy Press). Animals were anesthetized with intramuscular ketamine hydrochloride (15-20 mg/kg) and xylazine (5 mg/kg) prior to test article injection or vascular leakage induction. The eye area was surgically prepped with 5% betadine and rinsing with balanced salt solution, followed by administration of 1–2 drops of topical proparacaine hydrochloride (0.5%). […] Test articles (27 G × 6 mm, 30 G × 6 mm, and 32 G × 6 mm Dex-TEG-Dex extruded rods, or Ozurdex®) were injected intravitreally in Dutch Belted rabbits (male, 1.84–2.49 kg, 5–6 months) on Day 0 and vascular leakage was induced by an intravitreal injection of VEGF (500 ng/eye) at acute and chronic timepoints (1 week, 2.5, 4.5, 6, 9, 12, and/or 18 months) post-implantation. Post-injection analgesia was provided by 0.02-0.05 mg/kg IM/SC buprenorphine. Negative control rabbits received a sham injection while positive control rabbits received a 2 mg solution dose of triamcinolone acetonide (Kenalog-40). Ophthalmic exams, including fundus microscopy and slit lamp microscopy, were carried out over the 3 days post-VEGF induction and vascular leakage was measured by fluorescein angiography on the third day post-VEGF induction. Eyes were graded based on fundus and fluorescein angiography images using a scoring system as follows[76]: 0 – major vessels straight, some tortuosity of smaller vessels, no vessel dilation; 1 – increased tortuosity of major vessels and/or some vessel dilation; 2 – leakage between major vessels, significant vessel dilation; 3 – leakage between major and minor vessels, minor vessels still visible; and 4 – leakage between major and minor vessels, minor vessels poorly/not visible.

Dex in aqueous humor (ng/ml) [1]: BQL
Dex in retina (ng/g) [1]: BQL
Dex in vitreous humor (ng/ml) [1]: BQL
Compound: CC1CC2C3CCC4=CC(=O)C=CC4(C)C3(F)C(O)CC2(C)C1(O)C(=O)COC(=O)OCCOCCOCCOC(=O)OCC(=O)C1(O)C(C)CC2C3CCC4=CC(=O)C=CC4(C)C3(F)C(O)CC21C (centres unmarked) [Dex-TEG-Dex 30G x 6 mm implant]

Compound: OCCOCCOCCO [TEG, triethylene glycol]
toxicity by systemic routes of administration [2]: no significant adverse toxicity

Cumulative Dex Release (%), avg ([3]; Day 1, avg, Fig 6c): 0.0437%
Cumulative Dex Release (ng), avg ([3]; Day 1, avg, Fig 6c): 365.83 ng
Cumulative Dex Release ([3]; Day 1, single replicates, Fig 6c): 489.28 ng and 390.83 ng and 217.38 ng
Cumulative Dex Release (%), avg ([3]; Day 3, avg, Fig 6c): 0.15%
Cumulative Dex Release (ng), avg ([3]; Day 3, avg, Fig 6c): 1234.13 ng
Cumulative Dex Release ([3]; Day 3, single replicates, Fig 6c): 1469.66 ng and 1518.28 ng and 714.45 ng
Cumulative Dex Release (%), avg ([3]; Day 8, avg, Fig 6c): 0.45%
Cumulative Dex Release (ng), avg ([3]; Day 8, avg, Fig 6c): 3751.80 ng
Cumulative Dex Release ([3]; Day 8, single replicates, Fig 6c): 4281.72 ng and 3939.60 ng and 3034.10 ng
Cumulative Dex Release (%), avg ([3]; Day 10, avg, Fig 6c): 0.56%
Cumulative Dex Release (ng), avg ([3]; Day 10, avg, Fig 6c): 4651.15 ng
Cumulative Dex Release ([3]; Day 10, single replicates, Fig 6c): 5032.13 ng and 5126.71 ng and 3794.60 ng
Cumulative Dex Release (%), avg ([3]; Day 14, avg, Fig 6c): 0.78%
Cumulative Dex Release (ng), avg ([3]; Day 14, avg, Fig 6c): 6525.91 ng
Cumulative Dex Release ([3]; Day 14, single replicates, Fig 6c): 7249.57 ng and 6858.64 ng and 5469.52 ng
IC50 ([4]; Monocyte): 1.52 ± 1.24 nM
Compound: C[C@@H]1C[C@H]2[C@@H]3CCC4=CC(=O)C=C[C@]4(C)[C@@]3(F)[C@@H](O)C[C@]2(C)[C@@]1(O)C(=O)CO [Dex, dexamethasone, reference compound]
% Activity ([4]; 0.05 nM, 50 pM): 141.66% and 109.12% and 86.18%
% Activity ([4]; 0.1 nM, 0.0001 µM): 118.30% and 90.43% and 82.49%
% Activity ([4]; 0.5 nM, 0.0005 µM): 96.26% and 65.64% and 103.04%
% Activity ([4]; 1 nM, 0.001 µM): 66.03% and 45.78% and 57.92%
% Activity ([4]; 5 nM, 0.005 µM): 74.59% and 37.73% and 56.77%
% Activity ([4]; 10 nM, 0.01 µM): 69.04% and 28.95% and 33.87%
% Activity ([4]; 100 nM, 0.1 µM): 42.88% and 13.38% and 14.89%

Compound: CC1CC2C3CCC4=CC(=O)C=CC4(C)C3(F)C(O)CC2(C)C1(O)C(=O)COC(=O)OCCOCCOCCOC(=O)OCC(=O)C1(O)C(C)CC2C3CCC4=CC(=O)C=CC4(C)C3(F)C(O)CC21C (centres unmarked) [Dex-TEG-Dex (30G x 6 mm implant)]
FA Scoring ([5]; 7 days): 0
FA Scoring ([5]; 136 days): 0
FA Scoring ([5]; 360 d): 2 and 3 and 4 and 0 and 1

Cumulative Dex Release ([3]; Fig 5g pellet 1x1 mm, 2 ml FBS, Day 3, samples and avg): 5606.66 ng and 6179.38 ng and 5887.12 ng
Cumulative Dex Release ([3]; Fig 5g pellet 1x1 mm, 2 ml FBS, Day 3, samples and avg, mean): 5891.06 ng
Cumulative Dex Release ([3]; Fig 5g pellet 1x1 mm, 2 ml FBS, Day 7, samples and avg (Dex-Hex-Dex), mean): 15650.99 ng
Cumulative Dex Release ([3]; Fig 5g pellet 1x1 mm, 2 ml FBS, Day 10, samples and avg, mean): 22053.69 ng
Cumulative Dex Release ([3]; Fig 5g pellet 1x1 mm, 2 ml FBS, Day 14, samples and avg (Dex-Hex-Dex), mean): 34050.91 ng
Cumulative Dex Release (%) ([3]; Day 3, avg): 0.42%
Cumulative Dex Release (%) ([3]; Day 7, avg (Dex-Hex-Dex)): 1.13%
Cumulative Dex Release (%) ([3]; Day 10, avg): 1.59%
Cumulative Dex Release (%) ([3]; Day 14, avg (Dex-Hex-Dex)): 2.45%
Compound: CC1CC2C3CCC4=CC(=O)C=CC4(C)C3(F)C(O)CC2(C)C1(O)C(=O)COC(=O)OCCCCCCOC(=O)OCC(=O)C1(O)C(C)CC2C3CCC4=CC(=O)C=CC4(C)C3(F)C(O)CC21C (stereo not drawn) [Dex-Hex-Dex]
Cumulative Dex Release ([3]; Fig 5g pellet 1x1 mm, 2 ml FBS, Day 7, samples and avg (Dex-Hex-Dex)): 14987.41 ng and 15994.59 ng and 15970.98 ng
Cumulative Dex Release ([3]; Fig 5g pellet 1x1 mm, 2 ml FBS, Day 10, samples and avg): 21287.07 ng and 22357.19 ng and 22516.81 ng
Cumulative Dex Release ([3]; Fig 5g pellet 1x1 mm, 2 ml FBS, Day 14, samples and avg (Dex-Hex-Dex)): 32738.37 ng and 34997.20 ng and 34417.18 ng

IC50 ([4]; listed as Dex from Dex-TEG-Dex): 0.93 ± 0.49 nM
Compound: C[C@@H]1C[C@H]2[C@@H]3CCC4=CC(=O)C=C[C@]4(C)[C@@]3(F)[C@@H](O)C[C@]2(C)[C@@]1(O)C(=O)CO [Dex from Degraded Dex-TEG-Dex]
% Activity ([4]; 0.05 nM, 50 pM): 133.56% and 95.05% and 109.87%
% Activity ([4]; 0.1 nM, 0.0001 µM): 71.31% and 70.97% and 72.68%
% Activity ([4]; 0.5 nM, 0.0005 µM): 92.91% and 70.93% and 94.26%
% Activity ([4]; 1 nM, 0.001 µM): 74.23% and 63.23% and 72.65%
% Activity ([4]; 5 nM, 0.005 µM): 59.75% and 37.69% and 27.50%
% Activity ([4]; 10 nM, 0.01 µM): 60.49% and 37.84% and 31.81%
% Activity ([4]; 100 nM, 0.1 µM): 63.88% and 16.49% and 17.83%
